Assay results: the NIST ThermoML archive (doi:10.1021/je0341918)

Columns and labels:
[1] = 101.33 kPa, Liquid
[2] = molar heat capacity at constant pressure; settings: 298.15 K; 101.33 kPa; Liquid; Small sample (50 mg) DSC
[3] = xn = mol fraction of the nth substance listed; settings: 101.3 kPa, Liquid, x2 = 0
[4] = molar heat capacity at constant pressure; xn = mol fraction of the nth substance listed; settings: 101.3 kPa, Liquid, Small sample (50 mg) DSC, x2 = 0

OCCCCO [1,4-butanediol]
[1]
Settings	mass density [kg/m3]	viscosity [mPa·s]
293.15 K	1015.76	90.33
298.15 K	1012.68	71.15
303.15 K	1009.54	55.98
308.15 K	1006.43	44.44
313.15 K	1003.37	35.74
318.15 K	1000.45	29.11
323.15 K	997.14	23.63
328.15 K	994.02	19.68
333.15 K	990.93	16.17
338.15 K	987.93	13.65
343.15 K	984.81	11.45
348.15 K	981.7	9.778
353.15 K	978.59	8.28
363.15 K	972.71	6.213

Settings	molar heat capacity at constant pressure [J/K/mol]
[2]	200.9

O [water] + OCCCCO
Settings	mass density, [3] [kg/m3]	molar heat capacity at constant pressure, [4] [J/K/mol]	viscosity, [3] [mPa·s]
293.15 K	–	75.2	1.002
303.15 K	–	75.3	0.797
313.15 K	–	75.2	0.653
323.15 K	988.05	75.2	0.547
333.15 K	983.21	75.2	0.467
343.15 K	977.79	75.3	0.405
353.15 K	971.83	75.4	0.356
